The source of these data is patent publication US6227295A, “High temperature hydraulic fracturing fluid” (Schlumberger Technology Corporation, priority 1999, dated 2001).

The conditions of data set [1]: cited from earlier work.
A short description of data set [2]: pH of organic amine stabilizers (Table 1, mostly determined experimentally). In kind it is physicochemical. As to conditions: pH in water, some from the literature. The source says:
The fluid also comprises an organic amine stabilizing agent that has a first pKa or a pH in water of at least about 9.5. The organic amine preferably has from 1-20 carbon atoms, more preferably 1-10 carbon atoms. In one particularly preferred embodiment, the organic amine has the formula: […]
Table 1 below lists a number of organic amines that can be used as stabilizers in the present invention. The pKa values in the table are from the literature; the pH values in the table were mostly determined experimentally, although some were taken from the literature.

A short description of data set [3]: Viscosity retention of CMHPG linear gels after aging at 325° F. (Example 1, Table 2). It is filed as physicochemical. Conditions: TEPA 5 gpt, no secondary additive. How it is done:
Aqueous polymer solutions were aged in an air oven at elevated temperatures, and their viscosity was measured before and after the aging. […] The base gels were made in 1 liter quantities, and stored in Nalgene-type plastic bottles. The viscosity of each batch of base gel was measured at 70° F. on a Contraves LS-30 viscometer to establish the baseline for that batch.

The nature of data set [4]: Typical pH of fracturing fluid with TEPA as the stabilizer. In kind it is physicochemical. As to conditions: TEPA used as the stabilizer. The source says:
where R1 is C1 -C4 alkyl and n is from 1-6. Preferably R1 is ethylene and n is 4. This preferred amine, tetraethylenepentamine (TEPA), is available from Dow Chemical.

“And” between values parts separate entries of the source, which are not always exact repeats. Equal values may be shown once. Read-outs that look alike come from different tables or passages of the source.

Broadly, the pKa is the pH at which an ionisable group is half protonated. Take `NCCN` [ethylenediamine]: the figures for the pKa in data set [1] and in data set [1] (second value) were 10.7 and 7.6, respectively.

Molecule `CCN(O)CC` [DHA, N,N-diethylhydroxylamine] yielded a pH in data set [2] of 11.06.

`NCCCOCCCCOCCCN` [NDPA-12, di-(gamma-aminopropylether) of 1,4-butane diol] had a pH in data set [2] of 11.55.

On to `CCCCCCCCCCCCN` [DDA, dodecylamine], for which the pH in data set [2] turned out to be 10.22.

In data set [2], `NCCNCCN` [diethylenetriamine] showed a pH of 11.42.

`NCCN(CCN)CCN` [TAA, tris-(2-aminoethyl)amine] showed a pH in data set [2] of 11.25.

On to `NCCCCN` [1,4-diaminobutane], for which the pKa was 11.2 in data set [1] and 9.7 in data set [1] (second value).

`NCCNCCNCCNCCN` [tetraethylenepentamine] came in with a pH in data set [2] of 11.29. Further, in data set [3] (325° F.), the “% of initial viscosity after 2 hrs.” value is 93% and 63%. The “pH (Comments)” value in data set [3] turned out to be 11.50. Also, the “pH of the fluid” value in data set [4] is reported as “about 10.8”.

As for `NCCCCN` [tetramethylenediamine], the pKa in data set [1] was 10.7.

For `NCCCN` [1,3-diaminopropane], the pKa was 10.9 in data set [1] and 9.0 in data set [1] (second value).

On to `CC(N)CN` (stereo not drawn) [1,2-diaminopropane], for which the pKa in data set [1] is reported as 9.8; in data set [1] (second value), 6.6.

With `CC(COCCCN)COCCCN` [DPA-12, di-(gamma-aminopropylether) of 2-methyl-1,3-propane diol], the pH in data set [2] was determined as 11.41.

Turning to `CCCCCCCCCCN` [n-decylamine], the pKa in data set [1] was 10.6.

Take `CCCCN` [n-butylamine]: the pKa in data set [1] was 10.8.

On to `NCCCNCCNCCCN` [BAPED, N,N'-bis(3-aminopropyl)ethylene-diamine], for which the pH in data set [2] came out at 11.72.

`NCCCOCCOCCCN` [NDPA-10, di-(gamma-aminopropylether) of ethylene glycol] had a pH in data set [2] of 11.58.

On to `NCCCCCCN` [hexamethylenediamine], for which the pKa in data set [1] was 11.9.
